Measurements from article PMC8348686, “The Pharmacological Profile of Second Generation Pyrovalerone Cathinones and Related Cathinone Derivative” (International Journal of Molecular Sciences, 2021).

What was measured:
h5-HT1A receptor = biological target: T1, h5-HT1A receptor (Homo sapiens, UniProt P08908); assay: Radioligand binding, [3H]-8-OH-DPAT
T1 construct: expressed in transfected cells; host or cells: HEK293 cell preparations
T1 sequence (P08908 1-422): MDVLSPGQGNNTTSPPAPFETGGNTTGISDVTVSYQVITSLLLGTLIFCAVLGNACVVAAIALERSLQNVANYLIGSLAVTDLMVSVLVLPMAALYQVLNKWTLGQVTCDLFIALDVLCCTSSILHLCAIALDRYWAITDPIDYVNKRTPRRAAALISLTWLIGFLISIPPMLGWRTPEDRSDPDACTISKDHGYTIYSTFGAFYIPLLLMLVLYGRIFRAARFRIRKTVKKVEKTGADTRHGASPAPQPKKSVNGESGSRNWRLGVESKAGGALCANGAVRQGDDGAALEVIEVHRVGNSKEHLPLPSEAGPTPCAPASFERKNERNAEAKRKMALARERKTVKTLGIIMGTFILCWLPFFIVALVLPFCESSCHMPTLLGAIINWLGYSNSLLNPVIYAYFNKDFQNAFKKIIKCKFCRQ
Description: (§1) The radioligand binding assays for the human 5-HT1A, 5-HT2A, and 5-HT2C receptors were examined as previously described by. In summary, the human embryonic kidney 293 (HEK293) cell preparations were stably transfected with the human 5-HT1A, 5-HT2A or 5-HT2C receptors and then incubated with their respective radiolabelled ligands at a concentration equal to the dissociation constant, Kd. The following radioligands were used for the 5-HT1A, 5-HT2A, and 5-HT2C receptors, respectively; 0.90 nM [^3H]8-hydroxy-2-(dipropylamino) tetralin (8-OH-DPAT), 0.40 nM [^3H]ketanserin, and 1.4 nM [^3H]mesulgerine. The radioligand displacement for each examined drug was determined. Specific binding of the radioligand to the target was calculated by subtracting the nonspecific binding (in the presence of the receptor’s competitor in excess) from the total observed binding. The following radioligand competitors were used for the 5-HT1A, 5-HT2A, and 5-HT2C receptors, respectively; 10 μM pindolol (5-HT1A receptor), 10 μM spiperone (5-HT2A receptor), and 10 μM mianserin (5-HT2C receptor).

h5-HT2A receptor = h5-HT2A receptor (Homo sapiens, UniProt P28223); assay: Radioligand binding, [3H]-ketanserin; parameters: expressed in transfected cells; host or cells: HEK293 cell preparations
Chain of h5-HT2A receptor (P28223 whole entry): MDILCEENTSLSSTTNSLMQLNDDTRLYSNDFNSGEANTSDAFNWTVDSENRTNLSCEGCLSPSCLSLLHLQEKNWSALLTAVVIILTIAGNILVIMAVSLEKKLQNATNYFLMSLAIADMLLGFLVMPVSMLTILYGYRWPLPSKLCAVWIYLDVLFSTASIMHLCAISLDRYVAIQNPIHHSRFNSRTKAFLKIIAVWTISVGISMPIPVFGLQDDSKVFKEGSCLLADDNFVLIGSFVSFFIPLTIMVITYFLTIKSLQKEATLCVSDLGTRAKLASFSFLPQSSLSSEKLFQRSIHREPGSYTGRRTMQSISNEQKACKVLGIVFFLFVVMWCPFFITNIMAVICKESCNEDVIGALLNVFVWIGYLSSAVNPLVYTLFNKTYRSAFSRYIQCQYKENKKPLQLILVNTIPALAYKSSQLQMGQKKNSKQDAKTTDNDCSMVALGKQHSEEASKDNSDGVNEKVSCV
Description: as §1

[1] = biological target: T2, human norepinephrine (hNET) uptake transporter (Homo sapiens, UniProt P23975); assay: Monoamine uptake inhibition, norepinephrine uptake in transfected HEK293 cells; assay type: cell-based; details: for fold higher inhibition potency at the NET: compared to α-PPP
T2 construct: expressed in transfected cells; host or cells: HEK293
T2 sequence (P23975 whole entry): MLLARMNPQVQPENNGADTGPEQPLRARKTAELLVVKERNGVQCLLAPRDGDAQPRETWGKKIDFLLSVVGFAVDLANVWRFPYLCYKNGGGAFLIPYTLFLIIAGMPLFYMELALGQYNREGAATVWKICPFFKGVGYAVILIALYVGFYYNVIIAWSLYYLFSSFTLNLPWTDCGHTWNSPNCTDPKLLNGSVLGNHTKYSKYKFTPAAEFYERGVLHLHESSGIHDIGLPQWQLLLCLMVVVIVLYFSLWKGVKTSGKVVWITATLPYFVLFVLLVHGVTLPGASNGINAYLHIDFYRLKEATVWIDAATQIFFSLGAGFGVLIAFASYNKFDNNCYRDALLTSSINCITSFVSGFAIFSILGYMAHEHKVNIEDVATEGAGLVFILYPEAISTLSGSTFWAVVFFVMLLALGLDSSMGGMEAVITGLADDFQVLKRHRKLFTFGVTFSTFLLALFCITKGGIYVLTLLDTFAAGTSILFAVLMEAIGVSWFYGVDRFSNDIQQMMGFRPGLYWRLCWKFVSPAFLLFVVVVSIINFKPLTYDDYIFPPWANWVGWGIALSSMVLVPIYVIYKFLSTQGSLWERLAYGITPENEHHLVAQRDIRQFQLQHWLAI
Description: The monoamine uptake transporter inhibition was examined in accordance with previously described methods by for each substance of interest.
Human embryonic kidney 293 (HEK293) cells (Invitrogen, Zug, Switzerland) stably transfected with the human norepinephrine (hNET), dopamine (hDAT), or serotonin (hSERT) uptake transporters were briefly cultured in Dulbecco’s modified Eagle’s medium (DMEM; Gibco, Life Technologies, Zug, Switzerland) containing 10% fetal bovine serum and 250 μg/mL geneticin (Gibco, Life Technologies, Zug, Switzerland). Next, the cells were detached at a confluency of 70−90% and resuspended in Krebs–Ringer Bicarbonate Buffer (Sigma-Aldrich, Buchs, Switzerland) at a concentration of 3 × 10^6 cells per ml. The uptake buffer was additionally supplemented with 0.2 mg/mL of ascorbic acid (Sigma–Aldrich, Buchs, Switzerland) for the [^3H]-DA uptake experiments.
In summary, using round bottom 96-well plates, 100 μL of cell suspension was incubated in 25 μL of buffer containing test substances, vehicle control (0.7% dimethyl sulfoxide, DMSO), or 10 μM of the respective monoamine uptake inhibitor, mainly fluoxetine (SERT), nisoxetine (NET), or mazindol (DAT) for 10 min at room temperature while on a rotary shaker at 450 rpm (Thermomixer Comfort, Eppendorf, Hamburg, Germany). Thereafter, the monoamine uptake transporter was initiated by the addition of 50 μL of each respective radiolabelled neurotransmitter ([^3H]-5-HT, [^3H]-DA or [^3H]-NE) dissolved in the uptake buffer to a final concentration of 5 nM for an additional 10 min. Then, 100 μL of cell suspension mixture was transferred to microcentrifuge tubes containing 50 μL of 3 M potassium hydroxide (KOH, Sigma–Aldrich, Buchs, Switzerland) and 200 μL silicon oil (1:1 mixture of silicon oil type AR20 and AR200; Sigma–Aldrich, Buchs, Switzerland). Immediately after, the tubes were centrifugated (3 min, 13200 rpm) to terminate the uptake reaction by allowing the cells to move through the silicon oil into the KOH, which then lysed the cells. Quickly after, the tubes were immediately frozen with liquid nitrogen. Afterwards, the frozen cell pellet was cut off into 6 mL scintillation vials (Perkin–Elmer, Schwerzenbach, Switzerland) filled with 500 μL of lysis buffer (5 mM EDTA, 0.05 M TRIS-HCl, 50 mM NaCl and 1% NP-40 in water). Directly after the vials were shaken for 1 h at 700 rpm and then each vial was filled with 3 mL of scintillation fluid (Ultimagold, Perkin–Elmer, Schwerzenbach, Switzerland). The uptake of the monoamines was measured using a liquid scintillation counter (Packard Tri-Carb Liquid Scintillation Counter 1900 TR).
The data were analysed using Prism software (version 8, GraphPad, San Diego, CA, USA) and was fitted by a nonlinear regression to variable-slope sigmoidal dose-response curve. The IC50 values were extracted in order to determine each drug’s inhibition potency at the various monoamine transporters.

h5-HT2B receptor = biological target: T3, h5-HT2B receptor (Homo sapiens, UniProt P41595); assay: Activation potency, FLIPR calcium assay in HEK293 cells; assay type: cell-based
T3 construct: expressed in transfected cells; host or cells: HEK293
T3 sequence (P41595 whole entry): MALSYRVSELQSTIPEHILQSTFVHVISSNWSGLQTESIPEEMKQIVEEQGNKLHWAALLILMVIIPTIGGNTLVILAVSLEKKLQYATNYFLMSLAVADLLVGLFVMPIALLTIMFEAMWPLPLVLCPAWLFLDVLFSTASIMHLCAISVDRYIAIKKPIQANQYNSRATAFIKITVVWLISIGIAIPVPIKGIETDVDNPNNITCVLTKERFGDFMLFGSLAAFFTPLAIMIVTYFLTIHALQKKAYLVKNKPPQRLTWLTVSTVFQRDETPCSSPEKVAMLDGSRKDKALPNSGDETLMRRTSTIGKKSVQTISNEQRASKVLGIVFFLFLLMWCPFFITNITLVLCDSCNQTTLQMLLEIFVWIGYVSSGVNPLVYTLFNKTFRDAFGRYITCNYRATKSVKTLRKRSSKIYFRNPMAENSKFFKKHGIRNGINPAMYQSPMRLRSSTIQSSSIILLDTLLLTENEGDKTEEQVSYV
Description: Human embryonic kidney 293 (HEK293) cells were transfected with the human 5-HT2B receptors, seed into 96-well plates coated with poly-D-lysine at a concentration of 50,000 cell per 0.1 mL and then incubated for overnight at 37 °C in high glucose Dulbecco’s modified Eagle’s medium (DMEM; Invitrogen, Zug, Switzerland) containing 10% fetal calf serum (non-dialyzed, heat-inactivated), 250 mg/L Geneticin, and 10 mL/L PenStrep (Gibco). The medium was then removed using snap inversion and the cells were incubated with the 100 μL/well of calcium indicator Fluo-3-solution for 45 min at 31 °C (Molecular Probes, Eugene, OR, USA). Thereafter, the solution was removed using snap inversion and replaced with fresh calcium indicator Fluo-3-solution for an additional 45 min at 31 °C. The cells were then washed with HBSS and 20 mM HEPES using the EMBLA cell washer and immediately after incubated with 100 μL of assay buffer. The plate was then put into the FLIPR, turned online and the test drugs, diluted in the assay buffer were added to the corresponding wells (25 μL/well). The corresponding concentration vs. response curves were fitted using nonlinear regression and the EC50 values were calculated. The efficacy (maximal activity) was calculated relative to 5-HT activity, which was defined as 100%.

| SMILES | Ki (h5-HT1A receptor) [µM] | Ki (h5-HT2A receptor) [µM] | IC50 [1] [µM] | EC50 (h5-HT2B receptor) [µM] | fold higher inhibition potency at the NET [1] [fold] | NET IC50 value fold higher ([1]; than observed for α-PPP) | fold lower potency at the NET ([1]; compared to pyrovalerone and MPHP) [fold] |
| --- | --- | --- | --- | --- | --- | --- | --- |
| CCCCC(C(=O)c1ccc(C)cc1)N1CCCC1 (stereo not drawn) [MPHP, 4-methyl-α-pyrrolidinohexanophenone] | 13 ± 1.9 | 7.3 ± 1.2 | 0.07 | > 20 |  |  |  |
| CCC(C(=O)c1ccc(F)cc1)N1CCCC1 (stereo not drawn) [4F-PBP, 4-fluoro-α-pyrrolidinobutiophenone] | 6 ± 3.4 | > 13 | 0.61 | > 20 |  |  |  |
| CC(C(=O)c1ccccc1)N1CCCC1 (stereo not drawn) [α-PPP, α-pyrrolidinopropiophenone] | 0.7 ± 0.3 | 1.1 ± 0.3 | 0.64 | > 20 |  |  |  |
| CCCCC(C(=O)c1ccccc1)N1CCCC1 (stereo not drawn) [α-PHP, α-pyrrolidinohexanophenone] | 11 ± 5.3 | > 13 | 0.06 | > 20 | 11 |  |  |
| CCCCC(NCC)C(=O)c1ccccc1 (stereo not drawn) [NEH, N-ethylamine-hexanophenone] | > 17 | > 13 | 0.17 | > 20 |  |  |  |
| CCCC(C(=O)c1ccccc1)N1CCCC1 (stereo not drawn) [α-PVP, α-pyrrolidinopentiophenone] | 6.1 ± 0.7 | > 13 | 0.02 | > 20 | 32 |  |  |
| CNC(C)Cc1ccc2c(c1)OCO2 (stereo not drawn) [MDMA, 3,4-methylenedioxymethamphetamine, reference compound] |  |  | 0.41 |  |  |  |  |
| CCC(C(=O)c1ccc2c(c1)OCO2)N1CCCC1 (stereo not drawn) [MDPBP, 3,4-methylenedioxy-α-pyrrolidinobutiophenone] | 9 ± 1.5 | > 13 | 0.14 | > 20 |  |  |  |
| COc1ccc(C(=O)C(C)N2CCCC2)cc1 (stereo not drawn) [MOPPP, 4-methoxy-α-pyrrolidinopropiophenone] | > 17 | > 13 | 8.7 | > 20 |  | about 14 fold |  |
| CC(C(=O)c1ccc2c(c1)OCO2)N1CCCC1 (stereo not drawn) [MDPPP, 3,4-methylenedioxy-α-pyrrolidinopropiophenone] | 1.9 ± 0.8 | 8 ± 1.2 | 1.7 | > 20 |  |  |  |
| CCCC(C(=O)c1ccc(C)cc1)N1CCCC1 (stereo not drawn) [Pyrovalerone, pyrovalerone] | 13 ± 1.4 | > 13 | 0.06 | > 20 |  |  |  |
| Cc1ccc(C(=O)C(C)N2CCCC2)cc1 (stereo not drawn) [4-MePPP, 4-methyl-α-pyrrolidinopropiophenone] | 12 ± 2.2 | 1.3 ± 0.4 | 0.64 | > 10 |  |  | 11 |
| CCCC(C(=O)c1ccc2c(c1)OCO2)N1CCCC1 (stereo not drawn) [MDPV, 3,4-methylenedioxypyrovalerone] | 7.7 ± 0.6 | > 13 | 0.05 | > 20 |  |  |  |
| CCCCC(C(=O)c1ccc2c(c1)OCO2)N1CCCC1 (stereo not drawn) [MDPHP, 3,4-methylenedioxy-α-pyrrolidinohexanophenone] | 13 ± 1.9 | > 13 | 0.06 | > 20 |  |  |  |
